Experimental data taken from patent publication US11667631B2, “FGFR4 inhibitor, preparation method therefor, and applications thereof” (Jiangsu Hansoh Pharmaceutical Group Co., Ltd., priority 2016, dated 2023).
pIC50: −log10 of the molar value. Like-named read-outs stand apart in the source and are kept apart here.

Tests used:
[1] = system: HuH-7 cells; assay: Inhibition of HuH-7 cell proliferation (CellTiter-Glo); assay type: cell-based; conditions: Homo sapiens, read-out: HuH-7 IC50
Method in brief: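 HuH-7 cells plated and left 16–24 h, then exposed to serially diluted compound for 72 h at 37 °C, 5% CO2. Viability read by CellTiter-Glo luminescence. IC50 obtained by curve fitting of inhibition rates.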

[2] = system: Hep 3B cell line tumor; assay: Pharmacodynamics test in vivo, Hep 3B tumor-bearing nude mice; conditions: Mus musculus, Hep3B, oral 30 mg/kg, 2 times/day, read-out: Tumor inhibition rate
Method: a, A Hep 3B cell line was taken from the cell bank, and the cells were resuscitated with the MEM culture medium (MEM+10% FBS+1% Glu+1% SP). The cells were placed in the cell culture bottle after resuscitation (cell type, date, and the name of the culturing person were marked on the bottle wall) and were incubated in a CO2 Incubator (the incubator temperature was 37° C., and the CO2 concentration was 5%).
b, The cells were passaged after 80-90% of the bottom of the culture bottle was covered by the cells. After passage, the cells were further incubated in the CO2 incubator. The process was repeated until the number of cells met the pharmacodynamic requirements in vivo.
c, The cultured cells were collected and counted by automatic cell counter. According to the counting results, the cells were resuspended with PBS to prepare a cell suspension (density: 7×10^7/mL), which was placed in the ice box for use.
a, Nude mouse was marked with a disposable universal ear tag for mouse and rat before inoculation, and the skin of the inoculated site was disinfected with 75% medical alcohol.
b, At the time of inoculation, the cell suspension was mixed well, 0.1˜1 mL of cell suspension was taken with a 1 mL syringe, after removing air bubbles, and the syringe was placed on an ice bag for use.
c, The nude mice were inoculated successively (the inoculated site was located on the right shoulder of the right back of the nude mice, and inoculated subcutaneously with 0.1 mL of cell suspension).
a, Tumor was measured on Day 14 to Day 16 after inoculation depending on the tumor growth, and tumor size was calculated.
Tumor volume calculation: tumor volume (mm^3)=length (mm)×width (mm)×width (mm)/2
b, According to the size of the tumor, the mice were grouped by random grouping.
c, According to the results of the grouping, the test drug was administered (administration method: oral administration, administration dose: 30 mg/kg, administration volume: 10 mL/kg, administration frequency: 2 times/day, […], vehicle: 0.5% CMC/1% Tween 80).
d, The tumor was measured and weighed twice a week after the test drug was administrated.
e, Animals were euthanized at the end of the test.

[3] = Pharmacokinetic (PK) analysis in rats; assay type: in vivo, Sprague Dawley (SD) rats; conditions: SD rats, single intragastric administration, 5 mg/kg; for Peak Time tmax: (sampling in hours); for AUC(0-t) / AUC(0-inf) / half-life / MRT / Cmax: Sprague-Dawley, rat, plasma, po; for AUC(0-t): read-out: Area Under Curve AUC0-t; for AUC(0-inf): read-out: Area Under Curve AUC0-∞; for half-life: read-out: Half-Time t1/2 (converted); for MRT: read-out: Mean Residence Time MRT; for Cmax: read-out: Plasma Concentration Cmax
Method in brief: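 Intravenous blood (0.2 ml) was collected into K2EDTA and centrifuged to obtain plasma. Plasma (40 μL) was protein-precipitated with 160 μL acetonitrile. Compound levels were measured by LC/MS/MS on a C18 column using 0.1% formic acid in water and acetonitrile at 0.8 mL/min.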

[4] = biological target: FGFR1 kinase (Homo sapiens (Human), UniProt P11362); assay: Enzymologic experiment of FGFR1 (TR-FRET); assay type: biochemical; conditions: FGFR1 kinase activity
Method in brief: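 FGFR1 at 0.1˜5 nM final with substrate peptide 5˜50 nM and ATP 10˜200 μM final, 0.5˜3 h at room temperature. Stopped with EDTA plus labeled antibody for 1 h; TR-FRET signal read at 665 nm, IC50 fitted from inhibition rates.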

[5] = system: Hep 3B cells; assay: Inhibition of Hep 3B cell proliferation (CellTiter-Glo); assay type: cell-based; conditions: Homo sapiens, Hep3B
[6] = system: SK-HEP-1 cells; assay: Inhibition of SK-HEP-1 cell proliferation (CellTiter-Glo); assay type: cell-based; conditions: Homo sapiens, read-out: SK-HEP-1 IC50
Method in brief: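 Cells seeded and allowed to attach 16–24 h, then exposed to serially diluted compound for 72 h at 37 °C, 5% CO2. Viability read by CellTiter-Glo luminescence; IC50 fitted from inhibition rates across concentrations.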

[7] = biological target: FGFR4 kinase (Homo sapiens (Human), UniProt P22455); assay: Enzymologic experiment of FGFR4 (TR-FRET); assay type: biochemical; conditions: FGFR4 kinase activity
Method: In this experiment, the inhibitory effect of the compounds on FGFR4 kinase activity was tested by a fluorescence resonance energy transfer (TR-FRET) method, and the half maximal inhibitory concentration (IC50) of the compounds on the FGFR4 kinase activity was determined.
2) 1˜5 μL of diluted solution in gradient of the compound was added.
3) 1˜5 μL of a substrate mixture containing substrate polypeptide with a final concentration of 5˜50 nM and ATP with a final concentration of 10˜200 μM was added.
4) The mixture was incubated for 0.5˜3 hours at room temperature.
5) 10 μL of EDTA and a test solution comprising labeled antibody were added, and the plate was incubated for 1 hour at room temperature.
7) The inhibition rates were calculated according to the fluorescence signal values.

[8] = 216 h, 9 days of administration
[9] = 72 h, read-out: Hep 3B IC50, Hep 3B cell proliferation, 72 hours, CellTiter-Glo
[10] = HuH-7 cell proliferation, 72 hours, CellTiter-Glo
[11] = 336 h, 14 days of administration
[12] = Hep 3B cell proliferation, 72 hours, CellTiter-Glo, read-out: Hep 3B IC50
[13] = SK-HEP1, SK-HEP-1 cell proliferation, 72 hours, CellTiter-Glo

Chain of FGFR1 kinase (P11362 22-822): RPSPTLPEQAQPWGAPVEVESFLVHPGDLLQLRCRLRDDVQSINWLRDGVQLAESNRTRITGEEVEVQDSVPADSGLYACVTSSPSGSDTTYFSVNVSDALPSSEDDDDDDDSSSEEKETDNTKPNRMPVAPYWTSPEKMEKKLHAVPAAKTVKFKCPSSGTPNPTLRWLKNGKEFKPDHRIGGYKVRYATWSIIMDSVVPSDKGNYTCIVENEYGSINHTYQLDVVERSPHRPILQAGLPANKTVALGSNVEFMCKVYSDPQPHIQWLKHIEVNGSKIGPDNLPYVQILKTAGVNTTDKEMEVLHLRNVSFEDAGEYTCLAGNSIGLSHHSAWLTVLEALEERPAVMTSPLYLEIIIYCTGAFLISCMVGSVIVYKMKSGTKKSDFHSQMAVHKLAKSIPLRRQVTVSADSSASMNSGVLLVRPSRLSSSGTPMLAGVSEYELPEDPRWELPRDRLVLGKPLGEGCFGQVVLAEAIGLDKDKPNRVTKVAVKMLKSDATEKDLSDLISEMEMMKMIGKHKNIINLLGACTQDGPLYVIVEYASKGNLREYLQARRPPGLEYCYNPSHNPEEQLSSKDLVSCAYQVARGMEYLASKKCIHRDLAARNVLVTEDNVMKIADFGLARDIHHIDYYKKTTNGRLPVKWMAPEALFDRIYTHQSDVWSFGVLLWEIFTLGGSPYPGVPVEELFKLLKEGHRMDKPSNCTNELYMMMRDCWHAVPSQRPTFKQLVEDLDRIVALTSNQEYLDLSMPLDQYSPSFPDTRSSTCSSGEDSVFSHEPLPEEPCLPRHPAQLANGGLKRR
Chain of FGFR4 kinase (P22455 22-802): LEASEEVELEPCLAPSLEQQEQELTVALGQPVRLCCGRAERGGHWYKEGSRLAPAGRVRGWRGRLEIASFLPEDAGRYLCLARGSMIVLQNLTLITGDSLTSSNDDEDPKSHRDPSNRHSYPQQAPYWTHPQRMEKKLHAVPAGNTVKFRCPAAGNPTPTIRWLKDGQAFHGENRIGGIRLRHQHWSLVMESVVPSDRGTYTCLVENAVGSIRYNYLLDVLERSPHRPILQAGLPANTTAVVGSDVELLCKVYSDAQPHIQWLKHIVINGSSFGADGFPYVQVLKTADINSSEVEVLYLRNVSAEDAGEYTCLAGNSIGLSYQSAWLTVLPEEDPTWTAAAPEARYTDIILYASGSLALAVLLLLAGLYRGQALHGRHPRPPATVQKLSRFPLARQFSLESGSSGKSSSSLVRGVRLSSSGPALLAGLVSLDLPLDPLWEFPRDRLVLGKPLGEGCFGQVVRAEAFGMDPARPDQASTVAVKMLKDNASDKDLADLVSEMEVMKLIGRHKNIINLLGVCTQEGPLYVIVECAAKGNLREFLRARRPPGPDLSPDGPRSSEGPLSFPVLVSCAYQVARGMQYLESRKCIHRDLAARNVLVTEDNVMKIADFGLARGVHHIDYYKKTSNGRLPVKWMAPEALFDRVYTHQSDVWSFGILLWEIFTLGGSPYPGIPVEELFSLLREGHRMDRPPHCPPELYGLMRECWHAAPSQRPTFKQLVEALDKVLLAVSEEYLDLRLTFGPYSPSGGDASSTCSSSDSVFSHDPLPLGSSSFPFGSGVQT

| SMILES | pIC50 ([1]; Huh-7, 72 h) | inhibition in vivo at 30 mg/kg [2, 8] [%] | Peak Time tmax [3] [h] | AUC(0-t) [3] [ng·h/mL] | AUC(0-inf) [3] [ng·h/mL] | half-life [3] [h] | MRT [3] [h] | Cmax [3] [ng/mL] | pIC50 [4] | pIC50 [5, 9] | pIC50 ([6]; SK-HEP1, 72 h) | inhibition in vivo at 30 mg/kg ([2]; 240 h, 10 days of administration) [%] | pIC50 [1, 10] | inhibition in vivo at 30 mg/kg [2, 11] [%] | Mean Residence Time MRT [3] [h] | pIC50 [5, 12] | pIC50 [6, 13] | pIC50 [7] |
| --- | --- | --- | --- | --- | --- | --- | --- | --- | --- | --- | --- | --- | --- | --- | --- | --- | --- | --- |
| COCCNc1cc(NC(=O)N2CCCc3cc(CN4CCCOCC4=O)c(C=O)nc32)ncc1C#N [Example 6] | 8.13 | 78.2 | 2 | 9120 | 9140 | 0.9 | 1 | 3500 | < 5.00 | 8.96 | < 5.00 | – | – | – | – | – | – | – |
| COCCNc1cc(NC(=O)N2CCCc3cc(CN4CCCCOC4=O)c(C=O)nc32)ncc1C#N [Example 23, N-(5-Cyano-4-((2-methoxyethyl)amino)pyridin-2-yl)-7-formyl-6-((2-carbonyl-1,3-oxazepin-3-yl)methyl)-3,4-dihydro-1,8-naphthyridin-1(2H)-carboxamide] | 8.17 | – | 2 | 9110 | 9110 | 1.02 | 3.5 | 2310 | – | 8.34 | < 5.00 | 89.8 | – | – | – | – | – | – |
| COC[C@@H](C)Nc1cc(NC(=O)N2CCCc3cc(CN4CCCCOC4=O)c(C=O)nc32)ncc1C#N [Example 29] | – | – | 2 | 9460 | 9460 | 1.27 | – | 3380 | – | – | – | – | 8.59 | 182 | 2.48 | 9.22 | < 5.00 | – |
| COC[C@@H](C)Oc1cc(NC(=O)N2CCCc3cc(CN4C(=O)OCC45CC5)c(C=O)nc32)ncc1C#N [Example 42, (R)-N-(5-Cyano-4-((1-methoxypropan-2-yl)oxy)pyridin-2-yl)-7-formyl-6-((5-carbonyl-6-oxa-4-azaspiro[2.4]heptan-4-yl)methyl)-3,4-dihydro-1,8-naphthyridin-1(2H) -carboxamide] | – | – | 2 | 6670 | 6790 | 1.06 | 2.21 | 2140 | < 5.00 | – | – | – | 8.08 | 103 | – | 8.17 | < 5.00 | 8.64 |
| N#Cc1cnc(NC(=O)N2CCCc3cc(CN4CCOCC4=O)c(C=O)nc32)cc1S[C@H]1CCOC1 [Example 55, (S)-N-(5-Cyano-4-((tetrahydrofuran-3-yl)thio)pyridin-2-yl)-7-formyl-6-((3-carbonylmorpholino)methyl)-3,4-dihydro-1,8-naphthyridin-1(2H)-carboxamide] | 7.44 | 33 | 4 | 1940 | 1950 | 0.79 | – | 2340 | < 5.00 | 7.84 | < 5.00 | – | – | – | – | – | – | – |
| N#Cc1cnc(NC(=O)N2CCCc3cc(CN4CCOCC4=O)c(C=O)nc32)cc1S[C@@H]1CCOC1 [Example 56, (R)-N-(5-Cyano-4-((tetrahydrofuran-3-yl)thio)pyridin-2-yl)-7-formyl-6-((3-carbonylmorpholino)methyl)-3,4-dihydro-1,8-naphthyridin-1(2H)-carboxamide] | 7.30 | 46.4 | 4 | 6650 | 6780 | 0.96 | – | 1640 | < 5.00 | 7.64 | < 5.00 | – | – | – | – | – | – | – |
| CO[C@H]1CCC[C@@H]1Nc1cc(NC(=O)N2CCCc3cc(CN4CCOCC4=O)c(C=O)nc32)ncc1C#N [Example 59, N-(5-Cyano-4-(((1S,2S)-2-methoxycyclopentyl)amino)pyridin-2-yl)-7-formyl-6-((3-carbonylmorpholino)methyl)-3,4-dihydro-1,8-naphthyridin-1(2H)-carboxamide] | 7.73 | 86.7 | 2 | 1260 | 1260 | 0.86 | 2.23 | 2060 | < 5.00 | 8.07 | < 5.00 | – | – | – | – | – | – | – |
| COCCNc1cc(NC(=O)N2CCCc3cc(CN4CCN(C5CC5)CC4=O)c(C=O)nc32)ncc1C#N [Example 65] | – | – | 2 | 2910 | 3390 | 1.02 | 3.72 | 3180 | < 5.00 | – | – | – | 7.82 | 130 | – | 8.37 | < 5.00 | 8.79 |
